Source: patent US20100099687A1, “TADALAFIL SOLID COMPOSITES” (Teva Pharmaceutical Industries Ltd., priority 2006, published 2010)

What was measured:
[1] = cited from earlier work
[2] = organic solvents such as methanol, ethanol, and acetone; 'is understood to be'; cited from earlier work
[3] = Dissolution profile, USP Apparatus 2 (Paddles), conditions of Table 1; assay type: physicochemical; conditions: sample containing 20 mg tadalafil, 1000 mL aqueous 0.15 wt % sodium lauryl sulfate and 6 g/L NaH2PO4, pH about 4.5, 37° C., 50 RPM, FIG. 2
Method: Dissolution profiles described herein were determined in a dissolution vessel using a USP Apparatus 2 (Paddles) under the conditions described in Table 1. Samples were analyzed on-line by a UV detector.
A sample of the dry powder P-00464, containing 20 mg tadalafil was collected and its dissolution profile determined according to the conditions in Table 1. The dissolution profile of P00464 was compared with the dissolution profiles of commercial versions of tadalafil tablets (Clalis® 20 mg) and active drug substance with a particle size distribution (PSD) such that the value of d(0.9)=˜(about) 50 μm. The results of dissolution testing are illustrated in FIG. 1.
Samples of P-00464 from Example 1 and samples of tadalafil active material with PSD of d(0.9)=˜(about) 4 μm (designated TAPI AK-2186) were prepared for dissolution testing as described below. The dissolution profiles of the samples were determined according to the conditions in Table 1. The samples were analyzed on-line by UV detection, and were compared. FIG. 2 illustrates the averages of the samples for each drug. […]

| tadalafil dissolved within 40 minutes [3] | SMILES | water solubility ([1]; 25° C., reported by U.S. Pat. No. 6,841,167) | solubility in water ([1]; 'is understood to be') | solubility in some organic solvents [2] |
| --- | --- | --- | --- | --- |
| – | CN1CC(=O)N2[C@H](c3ccc4c(c3)OCO4)c3[nH]c4ccccc4c3C[C@@H]2C1=O [tadalafil, (6R-trans)-6-(1,3-benzodioxol-5-yl)-2,3,6,7,12,12a-hexahydro-2-methyl-pyrazino[1′,2′:1,6]pyrido[3,4-]indole-1,4-dione] | about 2 μg per milliliter | practically insoluble | only very slightly soluble |
| less than 70 wt % | CN1CC(=O)N2[C@H](c3ccc4c(c3)OCO4)c3[nH]c4ccccc4c3C[C@@H]2C1=O | – | – | – |
